# Measured values: patent US8476197B2, “Aminopropenoates as fungicides” (priority 2009, dated 2013)
# Marks after values point to notes of the source that are not given here.
# Details: pH 2.3
row,Log P,Compound
1,3.02,COC(=O)C(C#N)=C(NC(C)C(C)C)c1cccnc1Br (stereo not shown) [Compound 942]
2,2.63,CCOC(=O)C(C#N)=C(NC(C)C(C)C)c1cccnc1C (stereo not shown) [Compound 953]

row,Compound,Log P
1,COC(=O)C(C#N)=C(NC(C)C(C)C)c1cccnc1Cl (stereo not shown) [Compound 931],3

# Same assay, conditions: pH 2.7
row,Compound,Log P
1,CCOC(=O)C(C#N)=C(NC(C)C1CC1)c1cccnc1Cl (stereo not shown) [Compound 910],3.1^[a]
2,CCOC(=O)C(C#N)=C(NC(C)C(C)(C)C)c1cccnc1Cl (stereo not shown) [Compound 924],3.6^[a]
3,CCOC(=O)C(C#N)=C(NC(C)CCCC(C)C)c1cn(C)nc1C(F)F (stereo not shown) [Compound 925],4.26^[a]
4,CCOC(=O)C(C#N)=C(NC(C)CCCC(C)C)c1sccc1C(F)(F)F (stereo not shown) [Compound 926],5.39^[a]
5,COC(=O)C(C#N)=C(NC(C)CCCC(C)C)c1sc(C)nc1C(F)(F)F (stereo not shown) [Compound 927],4.78^[a]
6,CCOC(=O)C(C#N)=C(NC(C)CCCC(C)C)c1sccc1Br (stereo not shown) [Compound 928],5.36^[a]
7,CCOC(=O)C(C#N)=C(NC(C)CCCC(C)C)c1sc(C)nc1C(F)(F)F (stereo not shown) [Compound 929],5.14^[a]
8,COC(=O)C(C#N)=C(NC(C)C(C)C)c1cccnc1Cl (stereo not shown) [Compound 931],2.76
9,CCOC(=O)C(C#N)=C(NC(C)C(C)C)c1cn(C)nc1C(F)F (stereo not shown) [Compound 933],3.13^[a]
10,COC(=O)C(C#N)=C(NC(C)C(C)C)c1cn(C)nc1C(F)F (stereo not shown) [Compound 938],2.8^[a]
11,CCOC(=O)C(C#N)=C(NC(C)C(C)C)c1cn(C)nc1C(F)(F)F (stereo not shown) [Compound 939],3.64^[a]
12,CCOC(=O)C(C#N)=C(NC(C)C(C)C)c1conc1C (stereo not shown) [Compound 940],3.15^[a]
13,CCOC(=O)C(C#N)=C(NC(C)C(C)C)c1cccnc1Cl (stereo not shown) [Compound 952],3.37
14,C=CCOC(=O)C(C#N)=C(NC(C)C(C)C)c1cccnc1Cl (stereo not shown) [Compound 955],3.55

# More lines, now with the values ahead:
row,Log P,Compound
1,5.32^[a],CCOC(=O)C(C#N)=C(NC(C)CCCC(C)C)c1ccsc1Br (stereo not shown) [Compound 930]
2,4.29^[a],CCOC(=O)C(C#N)=C(NC(C)C(C)C)c1ncc(C(F)(F)F)cc1Cl (stereo not shown) [Compound 935]
3,3.19^[a],CCOC(=O)C(C#N)=C(NC(C)C(C)C)c1c(C)nn(C)c1F (stereo not shown) [Compound 936]
4,4.39^[a],CCOC(=O)C(C#N)=C(NC(C)C(C)C)c1nsc(Cl)c1Cl (stereo not shown) [Compound 937]
5,4.12^[a],CCOC(=O)C(C#N)=C(NC(C)C(C)C)c1sccc1Br (stereo not shown) [Compound 941]
6,3.67^[a],CCOC(=O)C(C#N)=C(NC(C)C(C)C)c1c(C)nn(C)c1Cl (stereo not shown) [Compound 943]
7,4.21^[a],CCOC(=O)C(C#N)=C(NC(C)C(C)C)c1sccc1C(F)(F)F (stereo not shown) [Compound 944]
8,4.1^[a],CCOC(=O)C(C#N)=C(NC(C)C(C)C)c1ccsc1Br (stereo not shown) [Compound 945]
9,3.99^[a],CCOC(=O)C(C#N)=C(NC(C)C(C)C)c1cc(C)oc1C (stereo not shown) [Compound 947]
10,3.63^[a],COC(=O)C(C#N)=C(NC(C)C(C)C)c1sc(C)nc1C(F)(F)F (stereo not shown) [Compound 948]
11,3.95^[a],CCOC(=O)C(C#N)=C(NC(C)C(C)C)c1sc(C)nc1C(F)(F)F (stereo not shown) [Compound 949]
12,4.08^[a],CCOC(=O)C(C#N)=C(NC(C)C(C)C)c1sccc1Cl (stereo not shown) [Compound 951]
13,3.63^[a],CCOC(=O)C(C#N)=C(NC(C)C(C)C)c1c(C(F)F)nn(C)c1Cl (stereo not shown) [Compound 954]
14,2.2^[a],CC(C)C(C)NC(=C(C#N)C(=O)O)c1cccnc1Cl (stereo not shown) [Compound 956]

# Same assay, conditions: pH 7.5
row,Compound,Log P
1,COC(=O)C(C#N)=C(NC(C)C(C)C)c1cccnc1Cl (stereo not shown) [Compound 931],2.83
2,COC(=O)C(C#N)=C(NC(C)C(C)C)c1cccnc1Cl (stereo not shown) [Compound 932],2.85
3,CCOC(=O)C(C#N)=C(NC(C)C(C)C)c1cccnc1Cl (stereo not shown) [Compound 934],3.21
4,COC(=O)C(C#N)=C(NC(C)C(C)C)c1cccnc1Br (stereo not shown) [Compound 942],2.88
5,CC(C)OC(=O)C(C#N)=C(NC(C)C(C)C)c1cccnc1Cl (stereo not shown) [Compound 946],3.69
6,CCOC(=O)C(C#N)=C(NC(C)C(C)C)c1ccc(C)nc1Cl (stereo not shown) [Compound 950],3.63
7,CCOC(=O)C(C#N)=C(NC(C)C(C)C)c1cccnc1Cl (stereo not shown) [Compound 952],3.33
8,CCOC(=O)C(C#N)=C(NC(C)C(C)C)c1cccnc1C (stereo not shown) [Compound 953],2.89
9,C=CCOC(=O)C(C#N)=C(NC(C)C(C)C)c1cccnc1Cl (stereo not shown) [Compound 955],3.49
